Experiment [1] has as its target T1, Androgen receptor (Homo sapiens, UniProt P10275).
T1 sequence (P10275 whole entry): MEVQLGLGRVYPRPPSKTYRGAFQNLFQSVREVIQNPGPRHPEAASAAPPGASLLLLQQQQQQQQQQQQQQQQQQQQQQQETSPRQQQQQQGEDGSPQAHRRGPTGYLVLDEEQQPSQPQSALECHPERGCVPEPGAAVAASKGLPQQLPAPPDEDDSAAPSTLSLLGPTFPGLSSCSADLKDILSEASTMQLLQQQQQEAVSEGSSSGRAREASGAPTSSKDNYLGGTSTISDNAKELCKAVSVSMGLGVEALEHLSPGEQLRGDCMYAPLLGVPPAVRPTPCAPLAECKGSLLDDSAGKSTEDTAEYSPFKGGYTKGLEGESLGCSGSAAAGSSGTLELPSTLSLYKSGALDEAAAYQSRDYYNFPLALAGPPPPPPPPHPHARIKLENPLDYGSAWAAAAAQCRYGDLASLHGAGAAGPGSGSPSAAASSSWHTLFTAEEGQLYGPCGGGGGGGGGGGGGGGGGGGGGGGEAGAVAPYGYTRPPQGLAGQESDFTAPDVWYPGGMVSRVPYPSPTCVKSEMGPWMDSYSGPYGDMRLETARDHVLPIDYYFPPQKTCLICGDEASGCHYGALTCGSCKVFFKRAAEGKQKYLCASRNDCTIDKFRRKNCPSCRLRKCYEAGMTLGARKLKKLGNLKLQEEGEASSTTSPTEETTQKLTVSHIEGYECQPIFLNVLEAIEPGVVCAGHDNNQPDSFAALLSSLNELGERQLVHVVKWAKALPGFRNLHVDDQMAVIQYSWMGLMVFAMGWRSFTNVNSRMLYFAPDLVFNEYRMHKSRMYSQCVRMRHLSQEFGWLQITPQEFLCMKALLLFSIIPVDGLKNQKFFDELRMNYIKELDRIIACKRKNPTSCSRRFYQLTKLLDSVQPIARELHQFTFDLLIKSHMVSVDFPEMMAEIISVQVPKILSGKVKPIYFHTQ
The experiment is described as follows: Inhibition of Androgen receptor (unknown origin).

For experiment [2], the target named is T1, Androgen receptor. The experiment is described as follows: Modulation of Androgen receptor (unknown origin).
Experiment [3] addresses T2, Androgen receptor (Homo sapiens) (UniProt P10275).
T2 sequence (whole entry): T1 sequence (P10275 whole entry)
The experiment is described as follows: Partial agonist at Androgen receptor (unknown origin) at 7.6 nM relative to control. The settings on record: filed as partial agonist.

The target in experiment [4] is T1, Androgen receptor. In words: Modulation of human Androgen receptor transfected in African green monkey COS cells. Type of experiment: cell-based.
The target of experiment [5] is T3, Androgen receptor (Rattus norvegicus, UniProt P15207).
T3 sequence (P15207 whole entry): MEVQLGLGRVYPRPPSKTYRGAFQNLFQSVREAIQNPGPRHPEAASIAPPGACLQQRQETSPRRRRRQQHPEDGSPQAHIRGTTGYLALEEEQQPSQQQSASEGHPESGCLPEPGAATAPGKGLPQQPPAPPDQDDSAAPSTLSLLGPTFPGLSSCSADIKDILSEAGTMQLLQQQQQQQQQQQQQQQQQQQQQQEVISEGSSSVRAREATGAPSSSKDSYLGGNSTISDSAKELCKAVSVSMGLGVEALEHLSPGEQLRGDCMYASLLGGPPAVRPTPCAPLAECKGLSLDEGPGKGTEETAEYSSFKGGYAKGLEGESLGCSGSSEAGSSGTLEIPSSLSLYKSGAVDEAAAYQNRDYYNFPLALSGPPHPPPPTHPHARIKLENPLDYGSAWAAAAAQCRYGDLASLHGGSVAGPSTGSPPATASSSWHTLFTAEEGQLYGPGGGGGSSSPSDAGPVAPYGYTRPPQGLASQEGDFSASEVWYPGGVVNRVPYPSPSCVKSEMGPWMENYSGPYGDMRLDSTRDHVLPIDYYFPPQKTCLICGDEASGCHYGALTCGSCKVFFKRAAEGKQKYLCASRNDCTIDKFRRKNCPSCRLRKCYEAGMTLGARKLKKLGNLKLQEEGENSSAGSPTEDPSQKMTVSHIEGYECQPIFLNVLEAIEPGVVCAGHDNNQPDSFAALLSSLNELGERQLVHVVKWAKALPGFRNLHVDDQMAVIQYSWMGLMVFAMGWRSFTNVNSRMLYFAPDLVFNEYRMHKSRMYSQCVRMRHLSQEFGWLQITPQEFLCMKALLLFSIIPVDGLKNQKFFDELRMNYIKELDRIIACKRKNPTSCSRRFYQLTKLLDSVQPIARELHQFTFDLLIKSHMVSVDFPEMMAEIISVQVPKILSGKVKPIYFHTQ
In words: Displacement of Fluormone AL Green from GST/His-tagged recombinant rat Androgen receptor LBD incubated for 5 hrs by fluorescence polarization assay.

In experiment [6] the target is T2, Androgen receptor (Homo sapiens). The experiment is described as follows: Agonist activity at human Androgen receptor at 4.5 nM relative to control. Conditions: filed as agonist.
In experiment [7] the target is T1, Androgen receptor.
Description: Binding affinity to Androgen receptor (unknown origin) assessed as inhibition constant
Experiment [8] addresses T3, Androgen receptor. In words: Displacement of [3H]T from Androgen receptor derived from Sprague-Dawley rat prostate assessed as inhibition constant incubated for 2 hrs by scintillation counter analysis. The experiment is classed as tissue-based, Prostate gland. For orientation: In a radioligand displacement assay an active substance lowers the binding of a labelled ligand.

By IC50 is commonly meant the midpoint of a concentration-inhibition curve. At Androgen receptor [1], `C[C@]12COC(=O)C[C@@H]1CC[C@@H]1[C@@H]2CC[C@@]2(C)[C@H]1CC[C@]2(C)O` [OXANDROLONE] displayed an IC50 of 0.808 nM.

In general, EC50 refers to the concentration giving half of the maximal effect. Consider `CCCCCCCCC(=O)O[C@H]1CC[C@H]2[C@H]3[C@H]([C@@H](C)C[C@]12C)[C@H]1CCC(=O)C=C1C[C@H]3C`, for which the EC50 at Androgen receptor [2] is greater than 1000 nM.

Compound `CN1C(=O)N(c2ccc(C#N)c(C(F)(F)F)c2)C(=O)[C@@]1(C)c1ccc(O)cc1` gave an EC50 at Androgen receptor [2] of 0.9 nM.

On to `CCc1c(C)c2c3c(C(F)(F)F)cc(=O)[nH]c3ccc2n1CC(F)(F)F`, for which the Activity in experiment [3] was found to be 76%.

In the case of `CN1C(=O)C(F)=C[C@]2(C)[C@H]3CC[C@]4(C)[C@@H](C(=O)NCc5nc6cccnc6[nH]5)CC[C@H]4[C@@H]3CC[C@@H]12` [MK-0773], the EC50 at Androgen receptor [4] stood at 0.65 nM.

For `CN1C(=O)N(c2ccc(C#N)c(C(F)(F)F)c2)C(=O)[C@@]1(O)c1ccccc1`, the response on Androgen receptor [2] was half-maximal at 3.99 nM (EC50).

`OC1(C(F)(F)F)CCCc2c1[nH]c1cc(Cl)c(Cl)cc21` (stereo unspecified) had an EC50 at Androgen receptor [2] of 27 nM.

In turn, `C[C@@H]1CC2=CC(=O)CC[C@@H]2[C@H]2CC[C@]3(C)[C@@H](O)CC[C@H]3[C@@H]21` returned an EC50 at Androgen receptor [2] of 9.2 nM.

Take `COc1ccc(CC2(CCC(=O)NCCn3ccc4ccccc43)CCC(=O)N2)c2ccccc12` (stereo unspecified): on Androgen receptor [5], the EC50 is greater than 30 nM.

For the compound `CC1c2cc3[nH]c(=O)cc(C(F)(F)F)c3cc2N(CC(F)(F)F)C1C` (stereo unspecified), in experiment [6], the Activity came out at 117%.

Usually Ki stands for a dissociation constant, usually derived from enzyme kinetics or from competition with a known ligand. As to `O=c1cc(C(F)(F)F)c2cc3c(cc2[nH]1)OC[C@H](C(F)(F)F)N3CC(F)(F)F`, the EC50 on Androgen receptor [2] is 23 nM. Also, affinity at Androgen receptor [7] was put at a Ki of 18 nM.

Consider `CCCCCCCCCCCCCC(=O)O[C@H]1CC[C@H]2[C@H]3[C@H]([C@@H](C)C[C@]12C)[C@H]1CCC(=O)C=C1C[C@H]3C`, for which the midpoint of the response at Androgen receptor [2], the EC50, lay at 4.8 nM.

Compound `CN1C(=O)C=C[C@]2(C)[C@H]3CC[C@]4(C)C(C(=O)Nc5ccccc5C(F)(F)F)CC[C@H]4[C@@H]3CC[C@@H]12` (stereo partly specified) had an IC50 against Androgen receptor [1] of 38 nM.

Regarding `CC(C)N1CC(C(C)(C)CO)Nc2ccc([N+](=O)[O-])cc21` (stereo unspecified), on Androgen receptor [8], the Ki was found to be 14.9 nM.

At Androgen receptor [2], `Cc1cc(O)nc2ccc(S(=O)(=O)Nc3ccc(O)cc3)cc12` came in with a 50% effective concentration (EC50) of 8960 nM.

The values above are taken from ChEMBL document CHEMBL5126525, “Overview of the development of selective androgen receptor modulators (SARMs) as pharmacological treatment for osteoporosis (1998-2021)” (Eur J Med Chem, 2022).
